Test results taken from patent US11311503B1, “Sterile aqueous choline salt compositions” (Protara Therapeutics, Inc., priority 2021, dated 2022).
Where two headings read alike, the source gives them in different places.

Legend:
[1] = three months post production
[2] = three months post production; remark: listed apart in the source
[3] = Acid 1: 1 N HCl, about 72 hours
[4] = Acid 2: 0.1 N HCl, about 72 hours
[5] = Base 1: 1 N NaOH, about 72 hours
[6] = Base 2: 0.1 N NaOH, about 72 hours
[7] = Heat (dry): 80°, about 72 hours
[8] = Heat (wet): 80°, about 72 hours
[9] = Oxidation: 5% H2O2, about 24 hours
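Throughout, for % Impurities RRT 1.42/1.44: Stress-treated samples analysed together with a control by the test method, run time lengthened to catch possible late-eluting degradation peaks.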
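Throughout, for % Total Impurities: Stress-treated samples analysed together with a control by the test method, run time lengthened to catch possible late-eluting degradation peaks.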
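Throughout, for Assay % Relative to control: Stress-treated samples analysed together with a control by the test method, run time lengthened to catch possible late-eluting degradation peaks.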
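Throughout, for Mass Balance % Relative to Control: Stress-treated samples analysed together with a control by the test method, run time lengthened to catch possible late-eluting degradation peaks.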

## C[N+](C)(C)CCO.[Cl-] [Choline chloride]
[3]
  % Impurities RRT 1.42/1.44: 0.14%
  % Total Impurities: 0.14%
  Assay % Relative to control: 100.4%
  Mass Balance % Relative to Control: 100.5%
  Mass Balance Assay + Impurities: 99.24
Acid 1: 1 N HCl, about 72 hours, ambient
  Assay % LC: 99.1 % LC
[4]
  Assay % Relative to control: 100.2%
  Mass Balance % Relative to Control: 100.2%
  Mass Balance Assay + Impurities: 98.9
Acid 2: 0.1 N HCl, about 72 hours, ambient
  Assay % LC: 98.9 % LC
[5]
  % Impurities RRT 1.42/1.44: 0.14%
  % Total Impurities: 0.14%
  Assay % Relative to control: 100.6%
  Mass Balance % Relative to Control: 100.7%
  Mass Balance Assay + Impurities: 99.44
Base 1: 1 N NaOH, about 72 hours, ambient
  Assay % LC: 99.3 % LC
[6]
  Assay % Relative to control: 102.1%
  Mass Balance % Relative to Control: 102.1%
  Mass Balance Assay + Impurities: 100.8
Base 2: 0.1 N NaOH, about 72 hours, ambient
  Assay % LC: 100.8 % LC
Control: No treatment
  Assay % LC: 98.7 % LC
  Mass Balance Assay + Impurities: 98.7
Heat (dry): 80° for about 72 hours
  Assay % LC: 99.2 % LC
[7]
  Assay % Relative to control: 100.5%
  Mass Balance % Relative to Control: 100.5%
  Mass Balance Assay + Impurities: 99.2
[8]
  Assay % Relative to control: 100.7%
  Mass Balance % Relative to Control: 100.7%
  Mass Balance Assay + Impurities: 99.4
Heat (wet): in the presence of water, 80° for about 72 hours
  Assay % LC: 99.4 % LC
Light (dry): about 7.2 kilolux Visible and 1 W/m^2 UV, about 120 hours
  Assay % LC: 99.7 % LC
Light (dry): about 120 hours
  Assay % Relative to control: 101.0%
  Mass Balance % Relative to Control: 101.0%
  Mass Balance Assay + Impurities: 99.7
Light (wet): about 120 hours
  Assay % Relative to control: 100.2%
  Mass Balance % Relative to Control: 100.2%
  Mass Balance Assay + Impurities: 98.9
Light (wet): in the presence of water, about 7.2 kilolux Visible and 1 W/m^2 UV, about 120 hours
  Assay % LC: 98.9 % LC
[9]
  % Total Impurities: 0.55%
  Assay % Relative to control: 100.7%
  Mass Balance % Relative to Control: 101.3%
  Mass Balance Assay + Impurities: 99.95
Oxidation: 5% H2O2, about 24 hours, ambient
  Assay % LC: 99.4 % LC
acid, base, oxidation, light, heat, maximum stress conditions
  stability / degradation at all stressed conditions: no significant degradation
[1]
  pH (1 in 10 solution): 5.9
[2]
  Bacterial Endotoxins: <0.1 EU/mg
